How the values were obtained:
EV-A71 = test: Pre-treatment assay; type: cell-based, human enterovirus A71 (EV-A71) strain 41; details: pre-treatment 2 h, highest concentration, 12 hpi
Experimental: (§1) To confirm this finding, assays to investigate the effect of ZAF-47 on EV-A71 entry into cells were performed. With pre-treatment assay, we first treated the cells with different concentrations of ZAF-47 before subjecting them to EV-A71 infection. The aim was to investigate if ZAF-47 was able to bind to host surface receptors which would prevent the virions from binding and thus blocking viral entry. […] Even at the highest concentration, the reduction in viral titre (0.8 log10 PFU/mL decrease) was not as pronounced as post-treatment and could likely be due to drug toxicity. Thus, it is unlikely that ZAF-47 inhibits EV-A71 infection by binding with host receptors to block viral entry. With co-treatment assay, we first treated EV-A71 virions with ZAF-47 for 30 min before infecting the cells. The aim was to investigate if ZAF-47 was able to bind to viral surface proteins which would prevent the virions from binding to the host receptors and thus blocking viral entry. […] Thus, it is unlikely that ZAF-47 blocks EV-A71 entry into host cells by binding to viral surface proteins. Instead, using entry bypass assay, we were able to deduce that ZAF-47 most likely targets EV-A71 post-entry stages. […]
(§2) Seeded 24-well plates, with 1.5 × 10^5 RD cells per well, were incubated overnight at 37 °C with 5% CO2. […] The plates were frozen down at 12 hpi for viral titre quantification using viral plaque assay.

EV-A71 RNA = test: Entry bypass assay (EV-A71 RNA transfection); type: cell-based, human enterovirus A71 (EV-A71) strain 41; details: 12 hpi
Experimental: as §1, §2

[1] = system: replication-competent EV-A71 RNA replicon; test: Nano-luciferase reporter assay, replication-competent replicon; type: cell-based, human enterovirus A71 (EV-A71); details: RD cells, 12 h; ZAF-47 different concentrations, GuHCl 1 mM
Experimental: To identify specifically which of these two intrinsically linked processes that ZAF-47 inhibits, we transfected RD cells with EV-A71 RNA replicons that were either replication-competent or replication-defective and subsequently treated them with different concentrations of ZAF-47 for 12 h before detecting for luminescence. Both forms of replicons were previously established and validated. The replication-competent replicon is capable of self-replicating as it contains an intact 3D region that encodes for 3D polymerase (3D^pol) responsible for RNA replication (Figure 4c). […] In contrast, the replication-defective replicon contains a 3D region with 159 nucleotide deletion which would produce a non-functional 3D protein and impair RNA replication (Figure 4c). As such, cells containing the replication-defective replicon express luciferase upon IRES translation of the original replicons only. The transfected cells were also treated with negative control, DMSO and positive controls, guanidine hydrochloride (GuHCl) and cycloheximide (CHX), a RNA replication-specific inhibitor [50] and a general translation inhibitor [51] respectively.
Seeded 96-well plates, with 2 × 10^4 RD cells per well, were incubated overnight at 37 °C with 5% CO2. […]

`CC(=O)OC[C@]1(C)C(=O)CC[C@@]2(C)C(C/C=C3/C(=O)OC[C@@H]3Oc3cccc4cccnc34)=C(C)CC[C@@H]21` [ZAF-47, (14β)-(8′-Quinolinoxy)-3-ketone-9-dehydro-17-hydro-19-acetoxy–andrographolide] was tested. Which “reduction in viral titre” value (EV-A71) did it give?
The value was 0.8 log10 PFU/mL.

And the viral reduction (EV-A71 RNA; 10 µM)?
Its viral reduction is 0.9 log.

What about the viral reduction (EV-A71 RNA; 20 µM) of the same compound?
The viral reduction was 2.6 log.

And the “luminescence, replication-competent replicon” value [1]?
Its value is “significant decrease in luminescence in a dose-dependent manner”.
